Paper PMC10178848, “Modulating fast skeletal muscle contraction protects skeletal muscle in animal models of Duchenne muscular dystrophy” (The Journal of Clinical Investigation, 2023)

Tested on: GRMD plasma proteins
Format: in vivo, dog
Conditions: EDG-5506 treatment to GRMD baseline

SMILES: O=c1ccc(-c2cnc(OCC(F)(F)F)nc2)nn1Cc1cncc(F)c1 [EDG-5506]
- Proteasome activator complex subunit 3 (PSME3): Change from GRMD Baseline (fraction) (Decreased in GRMD): 0.0977 fraction
- Protein S100-A4 (S100A4): Change from GRMD Baseline (fraction) (Decreased in GRMD): 0.1824 fraction
- Protein amnionless (AMN): Change from GRMD Baseline (fraction) (Decreased in GRMD): 0.1425 fraction
- Protein jagged-1 (JAG1): Change from GRMD Baseline (fraction) (Decreased in GRMD): 0.2072 fraction
- Retinol-binding protein 4 (RBP4): Change from GRMD Baseline (fraction) (Decreased in GRMD): 0.0942 fraction
- Roundabout homolog 2 (ROBO2): Change from GRMD Baseline (fraction) (Decreased in GRMD): 0.1874 fraction
- SLIT and NTRK-like protein 5 (SLITRK5): Change from GRMD Baseline (fraction) (Decreased in GRMD): 0.1091 fraction
- SPARC (SPARC): Change from GRMD Baseline (fraction) (Decreased in GRMD): 0.0605 fraction
- Sclerostin (SOST): Change from GRMD Baseline (fraction) (Decreased in GRMD): 0.197 fraction
- Semaphorin-3E (SEMA3E): Change from GRMD Baseline (fraction) (Decreased in GRMD): -0.0152 fraction
- Semaphorin-5A (SEMA5A): Change from GRMD Baseline (fraction) (Decreased in GRMD): 0.0882 fraction
- Serum albumin (ALB): Change from GRMD Baseline (fraction) (Decreased in GRMD): 0.068 fraction
- Sialic acid-binding Ig-like lectin 6 (SIGLEC6): Change from GRMD Baseline (fraction) (Decreased in GRMD): 0.1345 fraction
- Stem cell growth factor-alpha (CLEC11A): Change from GRMD Baseline (fraction) (Decreased in GRMD): -0.071 fraction
- T-lymphocyte surface antigen Ly-9 (LY9): Change from GRMD Baseline (fraction) (Decreased in GRMD): 0.0785 fraction
- TGF-beta receptor type-2 (TGFBR2): Change from GRMD Baseline (fraction) (Decreased in GRMD): -0.0644 fraction
- Tropomyosin alpha-1 chain (TPM1): Change from GRMD Baseline (fraction) (Decreased in GRMD): 0.0152 fraction
- Tumor necrosis factor receptor superfamily member 10B (TNFRSF10B): Change from GRMD Baseline (fraction) (Decreased in GRMD): 0.131 fraction
- Tumor necrosis factor-inducible gene 6 protein (TNFAIP6): Change from GRMD Baseline (fraction) (Decreased in GRMD): 0.2046 fraction
- Wnt inhibitory factor 1 (WIF1): Change from GRMD Baseline (fraction) (Decreased in GRMD): 0.0365 fraction
- Activated Protein C (PROC): Change from GRMD Baseline (fraction) (Increased in GRMD): -0.0147 fraction
- Adiponectin (ADIPOQ): Change from GRMD Baseline (fraction) (Increased in GRMD): -0.1461 fraction
- Alanine aminotransferase 1 (GPT): Change from GRMD Baseline (fraction) (Increased in GRMD): -0.0729 fraction
- Alpha-2-antiplasmin (SERPINF2): Change from GRMD Baseline (fraction) (Increased in GRMD): -0.0328 fraction
- Apolipoprotein D (APOD): Change from GRMD Baseline (fraction) (Increased in GRMD): -0.0675 fraction
- Apolipoprotein L1 (APOL1): Change from GRMD Baseline (fraction) (Increased in GRMD): -0.1374 fraction
- Asialoglycoprotein receptor 1 (ASGR1): Change from GRMD Baseline (fraction) (Increased in GRMD): -0.009 fraction
- Bone morphogenetic protein 1 (BMP1): Change from GRMD Baseline (fraction) (Increased in GRMD): 0.0186 fraction
- Breast cancer anti-estrogen resistance protein 3 (BCAR3): Change from GRMD Baseline (fraction) (Increased in GRMD): -0.0831 fraction
- C5a anaphylatoxin (C5): Change from GRMD Baseline (fraction) (Increased in GRMD): 0.2048 fraction
- C-C motif chemokine 1 (CCL1): Change from GRMD Baseline (fraction) (Increased in GRMD): -0.0825 fraction
- C-C motif chemokine 3 (CCL3): Change from GRMD Baseline (fraction) (Increased in GRMD): -0.078 fraction
- C-X-C motif chemokine 5 (CXCL5): Change from GRMD Baseline (fraction) (Increased in GRMD): -0.0608 fraction
- CD63 antigen (CD63): Change from GRMD Baseline (fraction) (Increased in GRMD): -0.0803 fraction
- CD97 antigen (CD97): Change from GRMD Baseline (fraction) (Increased in GRMD): -0.1124 fraction
- CD109 antigen (CD109): Change from GRMD Baseline (fraction) (Increased in GRMD): -0.0257 fraction
- CD177 antigen (CD177): Change from GRMD Baseline (fraction) (Increased in GRMD): -0.1306 fraction
- Carbonic anhydrase 4 (CA4): Change from GRMD Baseline (fraction) (Increased in GRMD): -0.0922 fraction
- Caspase-3 (CASP3): Change from GRMD Baseline (fraction) (Increased in GRMD): -0.0323 fraction
- Cell adhesion molecule 3 (CADM3): Change from GRMD Baseline (fraction) (Increased in GRMD): -0.0647 fraction
- Change from GRMD Baseline (fraction): 1-phosphatidylinositol 4,5-bisphosphate phosphodiesterase gamma-1 (PLCG1) (Increased in GRMD): -0.0855 fraction
- Change from GRMD Baseline (fraction): 14-3-3 protein family (YWHAB,YWHAE,YWHAG,YWHAH,YWHAQ,YWHAZ,SFN) (Increased in GRMD): -0.1463 fraction
- Change from GRMD Baseline (fraction): 26S proteasome non-ATPase regulatory subunit 7 (PSMD7) (Increased in GRMD): 0.0373 fraction
- Change from GRMD Baseline (fraction): 40S ribosomal protein S7 (RPS7) (Increased in GRMD): -0.3231 fraction
- Change from GRMD Baseline (fraction): A disintegrin and metalloproteinase with thrombospondin motifs 5 (ADAMTS5) (Increased in GRMD): 0.004 fraction
- Change from GRMD Baseline (fraction): A disintegrin and metalloproteinase with thrombospondin motifs 15 (ADAMTS15) (Increased in GRMD): -0.0189 fraction
- Change from GRMD Baseline (fraction): AH receptor-interacting protein (AIP) (Increased in GRMD): -0.1069 fraction
- Change from GRMD Baseline (fraction): AMP Kinase (alpha2beta2gamma1) (PRKAA2 PRKAB2 PRKAG1) (Increased in GRMD): -0.3422 fraction
- Change from GRMD Baseline (fraction): ATP synthase subunit beta, mitochondrial (ATP5B) (Increased in GRMD): 0.3871 fraction
- Change from GRMD Baseline (fraction): ATP-dependent RNA helicase DDX19B (DDX19B) (Increased in GRMD): -0.2236 fraction
- Change from GRMD Baseline (fraction): Acidic leucine-rich nuclear phosphoprotein 32 family member B (ANP32B) (Increased in GRMD): -0.3439 fraction
- Change from GRMD Baseline (fraction): Activin receptor type-1B (ACVR1B) (Increased in GRMD): -0.0675 fraction
- Change from GRMD Baseline (fraction): Adenylate kinase isoenzyme 1 (AK1) (Increased in GRMD): -0.5663 fraction
- Change from GRMD Baseline (fraction): Adenylosuccinate lyase (ADSL) (Increased in GRMD): 0.1427 fraction
- Change from GRMD Baseline (fraction): Afamin (AFM) (Increased in GRMD): -0.1952 fraction
- Change from GRMD Baseline (fraction): Aflatoxin B1 aldehyde reductase member 2 (AKR7A2) (Increased in GRMD): -0.1733 fraction
- Change from GRMD Baseline (fraction): Alcohol dehydrogenase [NADP(+)] (AKR1A1) (Increased in GRMD): -0.2833 fraction
- Change from GRMD Baseline (fraction): Aminoacylase-1 (ACY1) (Increased in GRMD): -0.4238 fraction
- Change from GRMD Baseline (fraction): Amphoterin-induced protein 2 (AMIGO2) (Increased in GRMD): 0.0688 fraction
